ChEMBL document CHEMBL1201862, “PubChem BioAssay data set” (2004)
Activity calls are given as the source filed them.

What was measured:
[1] = target: E3 ubiquitin-protein ligase XIAP (Homo sapiens, UniProt P98170); test: Counter Screen using XIAP-Bir3 for Chemical Antagonists of Bir1/2 domains of IAP-family anti-apoptotic proteins. [Related pubchem assays (depositor defined):AID1018, AID1449, AID1514, AID1638, AID1749, AID1750, AID488957, AID488963]
[2] = HEp-2 cell cytotoxicity, dose response, cytotoxicity control for RSV inhibitor project, HTS (AID 2410); type: functional; settings: human respiratory syncytial virus
Cytochrome P450 3A4 = Cytochrome P450 3A4 (Homo sapiens, UniProt P08684);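 also: CYP3A4 tested as one member of a cytochrome P450 panel screen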
Sequence of Cytochrome P450 3A4 (P08684 whole entry): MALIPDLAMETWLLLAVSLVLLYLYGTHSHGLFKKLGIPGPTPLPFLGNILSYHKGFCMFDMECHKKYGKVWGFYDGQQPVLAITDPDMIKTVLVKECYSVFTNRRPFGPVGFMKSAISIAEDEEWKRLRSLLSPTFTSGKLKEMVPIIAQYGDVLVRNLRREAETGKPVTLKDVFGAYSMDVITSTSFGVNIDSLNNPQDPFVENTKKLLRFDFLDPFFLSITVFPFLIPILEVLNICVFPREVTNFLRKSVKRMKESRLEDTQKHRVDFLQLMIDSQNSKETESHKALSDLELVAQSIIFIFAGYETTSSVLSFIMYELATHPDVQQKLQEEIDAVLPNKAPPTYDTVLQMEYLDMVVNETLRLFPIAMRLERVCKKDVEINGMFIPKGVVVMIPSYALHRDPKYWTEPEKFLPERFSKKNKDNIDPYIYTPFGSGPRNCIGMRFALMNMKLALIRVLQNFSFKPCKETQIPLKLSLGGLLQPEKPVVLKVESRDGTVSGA

[3] = target: T1, Apoptotic protease-activating factor 1 (Homo sapiens, UniProt O14727); type: functional
T1 sequence (O14727 whole entry): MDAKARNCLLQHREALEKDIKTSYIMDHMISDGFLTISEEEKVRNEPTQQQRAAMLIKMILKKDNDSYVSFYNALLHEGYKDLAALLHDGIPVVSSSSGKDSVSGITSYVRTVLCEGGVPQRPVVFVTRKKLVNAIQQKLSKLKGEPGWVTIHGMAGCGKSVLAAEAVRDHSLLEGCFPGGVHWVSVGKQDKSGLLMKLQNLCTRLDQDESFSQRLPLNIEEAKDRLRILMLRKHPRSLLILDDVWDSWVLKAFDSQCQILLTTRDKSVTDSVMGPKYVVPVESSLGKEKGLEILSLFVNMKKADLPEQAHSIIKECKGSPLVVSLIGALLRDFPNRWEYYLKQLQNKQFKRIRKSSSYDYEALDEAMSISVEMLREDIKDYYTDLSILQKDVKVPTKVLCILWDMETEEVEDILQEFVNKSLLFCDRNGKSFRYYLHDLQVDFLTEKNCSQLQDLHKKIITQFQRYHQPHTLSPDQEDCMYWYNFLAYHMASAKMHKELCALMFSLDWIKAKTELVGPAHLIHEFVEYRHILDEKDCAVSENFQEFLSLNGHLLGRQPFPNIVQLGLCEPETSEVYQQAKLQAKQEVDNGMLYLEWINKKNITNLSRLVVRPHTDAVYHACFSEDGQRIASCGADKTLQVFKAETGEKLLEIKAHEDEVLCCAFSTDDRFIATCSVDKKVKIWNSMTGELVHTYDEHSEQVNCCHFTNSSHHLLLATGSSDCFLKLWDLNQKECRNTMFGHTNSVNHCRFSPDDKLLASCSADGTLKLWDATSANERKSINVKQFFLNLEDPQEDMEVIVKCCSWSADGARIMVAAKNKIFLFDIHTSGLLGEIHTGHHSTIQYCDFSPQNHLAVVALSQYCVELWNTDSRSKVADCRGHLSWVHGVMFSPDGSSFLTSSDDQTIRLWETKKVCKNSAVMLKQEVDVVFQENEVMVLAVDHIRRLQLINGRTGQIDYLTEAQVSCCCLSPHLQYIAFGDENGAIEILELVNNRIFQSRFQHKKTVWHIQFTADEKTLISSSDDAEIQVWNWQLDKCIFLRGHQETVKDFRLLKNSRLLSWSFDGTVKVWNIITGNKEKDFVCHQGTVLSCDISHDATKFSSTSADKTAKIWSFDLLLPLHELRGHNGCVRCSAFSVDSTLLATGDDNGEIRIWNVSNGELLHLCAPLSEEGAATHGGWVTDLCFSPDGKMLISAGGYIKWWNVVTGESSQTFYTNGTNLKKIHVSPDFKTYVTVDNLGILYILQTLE

[4] = target: Cystic fibrosis transmembrane conductance regulator/Golgi-associated PDZ and coiled-coil motif-containing protein (Homo sapiens, UniProt P13569+Q9HD26); test: CAL PDZ peptide-binding inhibitors, dose response, biochemical, fluorescence polarization, Cerulean-tagged CAL PDZ, cherry-picks (AID 504773)
Sequence of Cystic fibrosis transmembrane conductance regulator/Golgi-associated PDZ and coiled-coil motif-containing protein (P13569 whole entry, other chains not shown): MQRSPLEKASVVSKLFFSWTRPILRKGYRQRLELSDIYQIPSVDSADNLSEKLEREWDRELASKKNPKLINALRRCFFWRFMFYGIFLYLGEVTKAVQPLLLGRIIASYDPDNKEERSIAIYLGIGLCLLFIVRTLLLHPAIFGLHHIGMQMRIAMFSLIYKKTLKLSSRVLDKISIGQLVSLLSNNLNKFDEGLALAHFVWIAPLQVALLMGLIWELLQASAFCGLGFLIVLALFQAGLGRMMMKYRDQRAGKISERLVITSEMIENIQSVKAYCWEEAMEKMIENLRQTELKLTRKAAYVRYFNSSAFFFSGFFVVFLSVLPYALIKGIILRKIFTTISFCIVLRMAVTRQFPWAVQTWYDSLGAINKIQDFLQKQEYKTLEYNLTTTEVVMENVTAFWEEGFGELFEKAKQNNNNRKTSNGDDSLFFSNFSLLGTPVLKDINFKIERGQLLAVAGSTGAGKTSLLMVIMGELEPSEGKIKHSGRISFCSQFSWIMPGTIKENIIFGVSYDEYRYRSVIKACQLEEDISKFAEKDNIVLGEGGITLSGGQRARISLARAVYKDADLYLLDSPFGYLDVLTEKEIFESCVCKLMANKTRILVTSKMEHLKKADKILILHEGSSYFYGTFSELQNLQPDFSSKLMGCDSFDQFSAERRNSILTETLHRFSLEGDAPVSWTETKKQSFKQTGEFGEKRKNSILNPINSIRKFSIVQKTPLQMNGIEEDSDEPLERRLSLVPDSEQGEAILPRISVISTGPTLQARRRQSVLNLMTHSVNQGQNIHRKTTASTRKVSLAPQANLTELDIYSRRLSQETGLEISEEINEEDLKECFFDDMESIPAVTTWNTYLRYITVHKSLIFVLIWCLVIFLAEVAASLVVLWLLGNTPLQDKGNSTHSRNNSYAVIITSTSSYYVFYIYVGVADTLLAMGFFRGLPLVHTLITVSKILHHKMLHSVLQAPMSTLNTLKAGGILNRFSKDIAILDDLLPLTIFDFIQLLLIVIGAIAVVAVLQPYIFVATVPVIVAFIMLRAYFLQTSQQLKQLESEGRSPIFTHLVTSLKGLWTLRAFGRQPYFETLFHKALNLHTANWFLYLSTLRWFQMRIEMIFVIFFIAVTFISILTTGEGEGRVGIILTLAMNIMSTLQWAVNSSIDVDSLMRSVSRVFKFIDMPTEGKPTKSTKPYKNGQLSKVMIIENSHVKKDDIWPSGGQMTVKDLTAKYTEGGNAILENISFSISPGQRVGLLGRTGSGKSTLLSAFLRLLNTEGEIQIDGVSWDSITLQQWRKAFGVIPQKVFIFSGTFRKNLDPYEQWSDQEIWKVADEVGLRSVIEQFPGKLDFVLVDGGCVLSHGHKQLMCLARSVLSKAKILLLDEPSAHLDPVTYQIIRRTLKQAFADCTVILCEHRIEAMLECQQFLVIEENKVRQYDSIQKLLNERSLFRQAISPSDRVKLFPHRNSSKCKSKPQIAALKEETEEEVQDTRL

Hexokinase HKDC1 = target: T2, Hexokinase HKDC1 (Homo sapiens, UniProt Q2TB90); test: HKDC1 hexokinase inhibitors, dose response, biochemical, W721R variant (AID 504729); type: functional
T2 sequence (Q2TB90 whole entry): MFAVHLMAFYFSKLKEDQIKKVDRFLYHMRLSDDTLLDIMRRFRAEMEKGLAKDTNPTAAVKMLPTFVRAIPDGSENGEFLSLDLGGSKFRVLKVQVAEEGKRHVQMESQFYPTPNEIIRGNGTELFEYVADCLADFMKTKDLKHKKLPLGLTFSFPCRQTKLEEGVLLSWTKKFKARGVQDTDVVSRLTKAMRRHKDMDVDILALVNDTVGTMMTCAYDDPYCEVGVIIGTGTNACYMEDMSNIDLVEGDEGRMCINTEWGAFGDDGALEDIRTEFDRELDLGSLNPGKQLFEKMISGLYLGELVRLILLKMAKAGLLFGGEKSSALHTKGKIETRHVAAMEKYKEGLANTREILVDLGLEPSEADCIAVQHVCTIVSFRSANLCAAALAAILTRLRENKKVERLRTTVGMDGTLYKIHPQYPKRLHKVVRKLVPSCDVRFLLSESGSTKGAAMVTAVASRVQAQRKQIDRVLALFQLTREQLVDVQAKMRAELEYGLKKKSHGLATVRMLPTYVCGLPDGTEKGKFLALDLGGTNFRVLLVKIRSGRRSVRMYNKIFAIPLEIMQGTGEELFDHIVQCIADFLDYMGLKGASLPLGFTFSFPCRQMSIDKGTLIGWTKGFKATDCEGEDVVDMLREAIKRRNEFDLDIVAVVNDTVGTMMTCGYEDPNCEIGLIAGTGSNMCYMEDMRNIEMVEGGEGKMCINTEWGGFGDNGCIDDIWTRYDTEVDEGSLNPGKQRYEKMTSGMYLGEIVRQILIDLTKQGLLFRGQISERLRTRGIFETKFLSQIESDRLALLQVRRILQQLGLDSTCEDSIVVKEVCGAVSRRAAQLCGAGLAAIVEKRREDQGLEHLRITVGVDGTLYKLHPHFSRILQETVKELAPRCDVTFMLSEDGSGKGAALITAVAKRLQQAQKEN

Beta-galactosidase = Beta-galactosidase (Escherichia coli, UniProt Q8VNN2); test: beta-galactosidase enzyme inhibitors and activators, dose response, artefact control for CCR6 antagonist project, biochemical, E. coli enzyme, set 3 (AID 504712); type: functional
Sequence of Beta-galactosidase (Q8VNN2 whole entry): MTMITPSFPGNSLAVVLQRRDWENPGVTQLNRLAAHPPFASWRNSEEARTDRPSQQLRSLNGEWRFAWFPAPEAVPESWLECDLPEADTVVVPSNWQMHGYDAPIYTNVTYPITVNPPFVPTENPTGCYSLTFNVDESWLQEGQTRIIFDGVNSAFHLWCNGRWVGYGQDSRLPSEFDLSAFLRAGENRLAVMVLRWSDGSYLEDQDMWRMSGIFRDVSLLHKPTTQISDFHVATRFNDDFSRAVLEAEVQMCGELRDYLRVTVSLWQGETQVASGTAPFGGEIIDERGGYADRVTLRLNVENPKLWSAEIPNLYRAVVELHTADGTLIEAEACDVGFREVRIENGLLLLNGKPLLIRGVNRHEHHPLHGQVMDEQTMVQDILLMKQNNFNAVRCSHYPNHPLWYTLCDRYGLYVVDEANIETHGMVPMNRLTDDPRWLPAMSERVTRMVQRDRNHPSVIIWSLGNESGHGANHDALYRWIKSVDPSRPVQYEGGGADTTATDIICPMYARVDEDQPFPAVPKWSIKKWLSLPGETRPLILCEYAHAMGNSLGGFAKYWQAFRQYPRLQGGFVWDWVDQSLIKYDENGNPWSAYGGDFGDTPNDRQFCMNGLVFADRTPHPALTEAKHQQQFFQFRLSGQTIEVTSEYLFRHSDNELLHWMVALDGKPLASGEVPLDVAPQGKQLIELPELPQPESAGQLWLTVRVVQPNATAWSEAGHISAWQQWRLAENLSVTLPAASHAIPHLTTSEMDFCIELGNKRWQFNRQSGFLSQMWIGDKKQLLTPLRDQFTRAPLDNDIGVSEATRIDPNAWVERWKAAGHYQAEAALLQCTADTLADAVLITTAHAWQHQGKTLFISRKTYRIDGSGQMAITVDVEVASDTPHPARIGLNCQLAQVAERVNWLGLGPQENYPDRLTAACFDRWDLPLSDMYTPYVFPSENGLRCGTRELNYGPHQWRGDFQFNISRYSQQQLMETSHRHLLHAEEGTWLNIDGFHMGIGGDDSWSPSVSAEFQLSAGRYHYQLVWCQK

[5] = target: Induced myeloid leukemia cell differentiation protein Mcl-1 (Homo sapiens, UniProt Q07820); type: functional
Sequence of Induced myeloid leukemia cell differentiation protein Mcl-1 (Q07820 whole entry): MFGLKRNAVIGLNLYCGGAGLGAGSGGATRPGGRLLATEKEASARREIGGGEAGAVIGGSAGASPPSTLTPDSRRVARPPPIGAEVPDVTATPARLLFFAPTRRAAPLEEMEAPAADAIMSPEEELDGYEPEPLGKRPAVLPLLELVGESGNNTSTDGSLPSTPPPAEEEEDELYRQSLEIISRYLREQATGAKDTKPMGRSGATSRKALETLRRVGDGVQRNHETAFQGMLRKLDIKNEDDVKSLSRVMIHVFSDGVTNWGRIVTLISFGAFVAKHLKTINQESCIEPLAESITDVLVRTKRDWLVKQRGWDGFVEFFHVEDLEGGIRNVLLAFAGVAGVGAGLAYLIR

Sequence of E3 ubiquitin-protein ligase XIAP (P98170 whole entry): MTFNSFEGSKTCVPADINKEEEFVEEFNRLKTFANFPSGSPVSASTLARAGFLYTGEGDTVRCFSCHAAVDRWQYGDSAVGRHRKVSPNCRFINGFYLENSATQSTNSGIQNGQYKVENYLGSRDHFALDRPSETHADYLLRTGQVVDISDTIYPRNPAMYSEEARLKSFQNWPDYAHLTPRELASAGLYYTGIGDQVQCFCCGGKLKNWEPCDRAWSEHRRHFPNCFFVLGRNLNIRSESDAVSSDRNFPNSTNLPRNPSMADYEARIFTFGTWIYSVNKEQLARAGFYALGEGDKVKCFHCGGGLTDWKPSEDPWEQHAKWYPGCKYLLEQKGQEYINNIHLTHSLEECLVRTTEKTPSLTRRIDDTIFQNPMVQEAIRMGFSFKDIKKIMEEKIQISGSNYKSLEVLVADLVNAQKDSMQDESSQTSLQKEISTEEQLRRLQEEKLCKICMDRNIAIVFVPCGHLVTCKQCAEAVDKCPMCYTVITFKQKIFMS

CCc1nnc(NS(=O)(=O)c2ccc(NC(=S)NC(=O)/C=C/c3ccc(C(C)C)cc3)cc2)s1
IC50 [1]: > 20 µM (inactive)
CC50 [2]: 17.2 µM (active)

O=C(/C=C/c1ccco1)Nc1ccc(Oc2ccccc2)cc1
AC50 (Cytochrome P450 3A4): 39.8 µM (inconclusive)

COc1ccc(S(=O)(=O)Nc2cc(SCC(=O)O)c(O)c3ccccc23)cc1
IC50 [3]: 31.8 µM (active)
AC50 [4]: 33.1 µM (active)
IC50 (Hexokinase HKDC1): 12 µM (active)

O=C1C(Nc2ccc(O)cc2)=C/C(=N/S(=O)(=O)c2cccs2)c2ccccc21
IC50 (Beta-galactosidase): > 66.6 µM (inactive)
IC50 (Hexokinase HKDC1): 8.31 µM (active)

COC(=O)C(O)(c1c(C)[nH]n(-c2ccccc2)c1=O)C(F)(F)F (stereo not given)
IC50 [3]: 14.6 µM (active)

CC1CC(=O)c2c(cc3c(-c4c(O)cc(O)c5c(O)c6c(cc45)OC(C)CC6=O)c(O)cc(O)c3c2O)O1 (stereo not given) [CEPHALOCHROMIN]
IC50 [5]: 1.49 µM (active)
